In US8334316B2, “Substituted organosulfur compounds and methods of using thereof” (ACEA Biosciences, Inc., priority 2004, dated 2012):

Assay: Acute toxicity, single intravenous injection, LD50 (Bliss method) in Kunming mice
Type: in vivo
Experimental: To evaluate the in vivo acute, intravenous toxicity of DBTS and ACEA100108 (a derivative of DBTS, see Table 33), the experiments were performed in non-tumor bearing, normal Kunming mice by monitoring the acute response of mice to a single dose of DBTS or ACEA100108 via intravenous injection (i.v.). The number of death for the treated mice was monitored and recorded. LD50 values for these compounds were calculated. Details of the study are provided below.
The experiments to test DBTS and ACEA100108 acute toxicity were performed in mice. The test mice were randomly divided into six groups (five dosing groups and one control group). Each group contained 20 Kunming strain mice, and among them, 50% were male and 50% were female. After administration of a single dose of DBTS or ACEA100108 via intravenous injection (i.v.), the acute response to DBTS or ACEA100108 compound, and the death of the treated mice during the first two weeks were monitored and recorded. The LD50 value was calculated using the Bliss method.
Materials and Method. The test chemical compound were DBTS and ACEA100108, which were dissolved into hydrogenated castor oil in the pre-warmed water bath and made as a 20 mg/ml solution. The solution was further diluted to desired experiment concentrations with the normal saline. The administration volume was 0.5 ml i.v. per mouse and the injection speed was 0.5 ml/0.5 min.
The experimental mice were Kunming strain, provided by the Experimental Animal Department, Shanghai Pharmaceutical Industry Institute. The certificate number of the facility was Animal Facility Certification Number 107. The average weight of the mice was 18-20 gram. Each test group contained 20 Kunming strain mice, and among them, 10 mice were male and 10 mice were female. […] The mice in the control group were only given the same volume of the solvent, which were diluted hydrogenated castor oil. All the testing mice were given a single intravenous injection of DBTS, ACEA100108, or the solvent that served as the control at the injection speed of 0.5 ml/0.5 min. The acute response to DBTS, ACEA100108 or the solvent immediately after the administration, as well as weight change, and the death within the first two weeks of the administration were monitored and recorded. The intravenous injection LD50 values in mice were calculated using the Bliss method.

[1] = 50% male, 50% female, 163.8 mg/kg, 20 animals
[2] = 50% male, 50% female, 204.8 mg/kg, 20 animals
[3] = 50% male, 50% female, 256 mg/kg, 20 animals
[4] = 50% male, 50% female, 320 mg/kg, 20 animals
[5] = 50% male, 50% female, 400 mg/kg, 20 animals
[6] = 50% male, 50% female, 500 mg/kg, 20 animals
[7] = Female, 163.8 mg/kg, 10 animals
[8] = Female, 204.8 mg/kg, 10 animals

Structure (SMILES): Fc1ccc(CSSSCc2ccc(F)cc2)cc1 [ACEA100108, Di(p-fluorobenzyl)trisulfide]
- Dead animals on day 1 after the single intravenous injection [1]: 0
- Dead animals on day 2 after the single intravenous injection [1]: 0
- Dead animals on day 3 after the single intravenous injection [1]: 0
- Dead animals on day 4 after the single intravenous injection [1]: 0
- Dead animals on day 5 after the single intravenous injection [1]: 0
- Dead animals on day 6 after the single intravenous injection [1]: 0
- Dead animals on day 7 after the single intravenous injection [1]: 0
- Dead animals on day 8 after the single intravenous injection [1]: 0
- Dead animals on day 9 after the single intravenous injection [1]: 0
- Dead animals on days 10-14 after the single intravenous injection [1]: 0 - - - 0
- Percentage of dead animals [1]: 0%
- Dead animals on day 1 after the single intravenous injection [2]: 0
- Dead animals on day 2 after the single intravenous injection [2]: 0
- Dead animals on day 3 after the single intravenous injection [2]: 1
- Dead animals on day 4 after the single intravenous injection [2]: 0
- Dead animals on day 5 after the single intravenous injection [2]: 0
- Dead animals on day 6 after the single intravenous injection [2]: 0
- Dead animals on day 7 after the single intravenous injection [2]: 0
- Dead animals on day 8 after the single intravenous injection [2]: 0
- Dead animals on day 9 after the single intravenous injection [2]: 0
- Dead animals on days 10-14 after the single intravenous injection [2]: 0 - - - 0
- Percentage of dead animals [2]: 5%
- Dead animals on day 1 after the single intravenous injection [3]: 0
- Dead animals on day 2 after the single intravenous injection [3]: 4
- Dead animals on day 3 after the single intravenous injection [3]: 0
- Dead animals on day 4 after the single intravenous injection [3]: 2
- Dead animals on day 5 after the single intravenous injection [3]: 0
- Dead animals on day 6 after the single intravenous injection [3]: 0
- Dead animals on day 7 after the single intravenous injection [3]: 0
- Dead animals on day 8 after the single intravenous injection [3]: 0
- Dead animals on day 9 after the single intravenous injection [3]: 0
- Dead animals on days 10-14 after the single intravenous injection [3]: 0 - - - 0
- Percentage of dead animals [3]: 30%
- Dead animals on day 2 after the single intravenous injection [4]: 2
- Dead animals on day 3 after the single intravenous injection [4]: 5
- Dead animals on day 4 after the single intravenous injection [4]: 2
- Dead animals on day 5 after the single intravenous injection [4]: 0
- Dead animals on day 6 after the single intravenous injection [4]: 0
- Dead animals on day 7 after the single intravenous injection [4]: 0
- Dead animals on day 8 after the single intravenous injection [4]: 0
- Dead animals on day 9 after the single intravenous injection [4]: 0
- Dead animals on days 10-14 after the single intravenous injection [4]: 0 - - - 0
- Percentage of dead animals [4]: 45%
- Dead animals on day 2 after the single intravenous injection [5]: 8
- Dead animals on day 3 after the single intravenous injection [5]: 5
- Dead animals on day 4 after the single intravenous injection [5]: 0
- Dead animals on day 5 after the single intravenous injection [5]: 2
- Dead animals on day 6 after the single intravenous injection [5]: 0
- Dead animals on day 7 after the single intravenous injection [5]: 0
- Dead animals on day 8 after the single intravenous injection [5]: 0
- Dead animals on day 9 after the single intravenous injection [5]: 0
- Dead animals on days 10-14 after the single intravenous injection [5]: 0 - - - 0
- Percentage of dead animals [5]: 75%
- Dead animals on day 1 after the single intravenous injection [6]: 20
- Dead animals on day 2 after the single intravenous injection [6]: 0
- Dead animals on day 3 after the single intravenous injection [6]: 0
- Dead animals on day 4 after the single intravenous injection [6]: 0
- Dead animals on day 5 after the single intravenous injection [6]: 0
- Dead animals on day 6 after the single intravenous injection [6]: 0
- Dead animals on day 7 after the single intravenous injection [6]: 0
- Dead animals on day 8 after the single intravenous injection [6]: 0
- Dead animals on day 9 after the single intravenous injection [6]: 0
- Dead animals on days 10-14 after the single intravenous injection [6]: 0 - - - 0
- Percentage of dead animals [6]: 100%
- Dead animals on day 1 after the single intravenous injection [7]: 0
- Dead animals on day 2 after the single intravenous injection [7]: 0
- Dead animals on day 3 after the single intravenous injection [7]: 0
- Dead animals on day 4 after the single intravenous injection [7]: 0
- Dead animals on day 5 after the single intravenous injection [7]: 0
- Dead animals on day 6 after the single intravenous injection [7]: 0
- Dead animals on day 7 after the single intravenous injection [7]: 0
- Dead animals on day 8 after the single intravenous injection [7]: 0
- Dead animals on day 9 after the single intravenous injection [7]: 0
- Dead animals on days 10-14 after the single intravenous injection [7]: 0 - - - 0
- Percentage of dead animals [7]: 0%
- Average animal weight, End (Female, 163.8 mg/kg, Beginning 19.6): 24.2
- Dead animals on day 1 after the single intravenous injection [8]: 0
- Dead animals on day 2 after the single intravenous injection [8]: 0
- Dead animals on day 3 after the single intravenous injection [8]: 0
- Dead animals on day 4 after the single intravenous injection [8]: 0
- Dead animals on day 5 after the single intravenous injection [8]: 0
- Dead animals on day 6 after the single intravenous injection [8]: 0
- Dead animals on day 7 after the single intravenous injection [8]: 0
- Dead animals on day 8 after the single intravenous injection [8]: 0
- Dead animals on day 9 after the single intravenous injection [8]: 0
- Dead animals on days 10-14 after the single intravenous injection [8]: 0 - - - 0
- Percentage of dead animals [8]: 0%
- Average animal weight, End (Female, 204.8 mg/kg, Beginning 20.5): 24.3
- Dead animals on day 1 after the single intravenous injection (Female, 256 mg/kg, 10 animals): 0
- Dead animals on day 2 after the single intravenous injection (Female, 256 mg/kg, 10 animals): 2
- Dead animals on day 3 after the single intravenous injection (Female, 256 mg/kg, 10 animals): 0
- Dead animals on day 4 after the single intravenous injection (Female, 256 mg/kg, 10 animals): 1
- Dead animals on day 5 after the single intravenous injection (Female, 256 mg/kg, 10 animals): 0
- Dead animals on day 6 after the single intravenous injection (Female, 256 mg/kg, 10 animals): 0
- Dead animals on day 7 after the single intravenous injection (Female, 256 mg/kg, 10 animals): 0
- Dead animals on day 8 after the single intravenous injection (Female, 256 mg/kg, 10 animals): 0
- Dead animals on day 9 after the single intravenous injection (Female, 256 mg/kg, 10 animals): 0
- Dead animals on days 10-14 after the single intravenous injection (Female, 256 mg/kg, 10 animals): 0 - - - 0
- Percentage of dead animals (Female, 256 mg/kg, 10 animals): 30%
- Average animal weight, End (Female, 256 mg/kg, Beginning 20.1): 24.6
- Dead animals on day 1 after the single intravenous injection (Female, 320 mg/kg, 10 animals): 2
- Dead animals on day 2 after the single intravenous injection (Female, 320 mg/kg, 10 animals): 2
- Dead animals on day 3 after the single intravenous injection (Female, 320 mg/kg, 10 animals): 1
- Dead animals on day 4 after the single intravenous injection (Female, 320 mg/kg, 10 animals): 0
- Dead animals on day 5 after the single intravenous injection (Female, 320 mg/kg, 10 animals): 0
- Dead animals on day 6 after the single intravenous injection (Female, 320 mg/kg, 10 animals): 0
- Dead animals on day 7 after the single intravenous injection (Female, 320 mg/kg, 10 animals): 0
